How the values were obtained:
[1] = system: HaCat keratinocytes; assay: Retinoid-stimulated autocrine (RSA) clonal growth assay; format: cell-based, human; conditions: 10 μM, 48 hours after treatment, relative to untreated control
Method: Since retinoids irritate skin leading to epidermal hyperplasia, it is the inventors idea that plant extracts that act as inhibitors of retinoid -stimulated autocrine growth are themselves anti-irritants. This hypothesis was tested using an in vitro keratinocyte culture model.
An immortalized line of human epidermal kertatinocytes, HaCat keratinocytes, can be cultured in a serum-free culture medium. Sterile Petri dishes (35 mm^2) are seeded at 5,000 cells per cm^2 and placed in a humidified CO2 incubator at 37° C. for 3-5 days or until the culture reaches about 30% confluent monolayer growth. The dishes are washed once with ice-cold serum-free media lacking EGF and insulin, and refed 2.5 ml of serum-free culture medium containing 5 ug/ml insulin and retinyl acetate (RA, 3×10^−8 M).—Duplicate control dishes are fixed and stained with 0.2% crystal violet to record the—amount of clonal growth prior to refeeding with fresh RA-containing medium. Test—dishes refed RA and insulin are split into three groups in duplicate. Group A is refed on the RA plus insulin medium. Group B is refed RA plus insulin medium and a TRK inhibitor (PD 15356), and Group C is refed medium containing RA plus insulin and from 0.1 to 5% of a hydroalcoholic botanical extract. All dishes are adjusted to have the same final concentration of alcohol (1%). All dishes are placed back in the incubator for 2 and 4 days. […]

[2] = system: irritating action of alpha-hydroxy acids (lactic and glycolic acids); conditions: Rosmarinic acid 5%; cited from earlier work

Structure (SMILES) | inhibition of RSA clonal growth [1] | reduction of the irritating action of alpha-hydroxy acids [2]
O.O.O=c1c(O)c(-c2ccc(O)c(O)c2)oc2cc(O)cc(O)c12 [quercetin dihydrate] | completely inhibited | 
O=C(/C=C/c1ccc(O)c(O)c1)O[C@H](Cc1ccc(O)c(O)c1)C(=O)O [Rosmarinic acid] |  | reduce by more than three-fold

Reference: patent US7399493B2, “Anti-irritant botanicals” (priority 2004, dated 2008)
